The test system of this test is adhesion of U937 cells to HUVEC stimulated by IL-1β or TNFα. Kind of test: Inhibitory effect on cell adhesion (U937 adhesion to stimulated HUVEC). The class given is cell-based. The conditions noted are these: Homo sapiens, compound at 1 μM, fluorescence-labeled U937 adhesion for 1 hour. How it is done:
This test was conducted by reference to the method of Ross et al. (J. Biol. Chem., 267, 8537-8543 (1992)). More specifically, after human umbilical venous endothelial cells (HUVEC) were cultured on a 48-well plate to confluent growth, IL−1β or TNFα was added thereto. Upon elapsed time of 5 hours after the addition, U937, which is a human monocytic/histocytic cell fluorescence-labeled with PKH2 (product of Dainippon Pharmaceutical Co., Ltd.), was added in a proportion of 1×10^6 cells per well. After the plate was left at rest at room temperature for 1 hour, unadhered U937 was washed out and lysed in 1% Triton X-100 to measure a remaining fluorescence intensity (excitation wavelength: 480 nm; measuring wavelength: 530 nm). HUVEC and U937 were cultured in EGM-2 (product of Sanko Junyaku K.K.) and 10% FCS-containing RPMI1640, respectively. Each test agent was added to HUVEC upon the addition of IL-1β or TNFα and to U937 24 hours prior to the cell adhesion test. The inhibitory activity was calculated out according to the equation [100−(C−B)/(A−B)×100 (%)], wherein A is the number of U937 cells adhered to HUVEC stimulated by IL−1β or TNFα when no test agent was added, B is the number of U937 cells adhered to HUVEC not stimulated by IL-1β or TNFα when no test agent was added, and C is the number of U937 cells adhered to HUVEC stimulated by ILβ or TNFα when the test agent was added. As control compounds, Test Compound 1 described in Japanese Patent Application Laid-Open No. 9-143075 and dilazep described in Japanese Patent Application Laid-Open No. 11-92382 were simultaneously evaluated.

[1] abbreviates: HUVEC stimulated by IL-1β for 5 hours, read-out: Percent inhibition (%) of cell adhesion, Stimulation by IL-1β.
[2] abbreviates: HUVEC stimulated by TNFα for 5 hours, read-out: Percent inhibition (%) of cell adhesion, Stimulation by TNFα.

The structures appear in SMILES notation. Read-outs that look alike come from different tables or passages of the source.

Usually inhibition stands for the percentage by which the read-out fell short of the control. With `COc1cc(-c2cc(CN3CCCN(Cc4ccnc(-c5cc(OC)c(OC)c(OC)c5)c4)CC3)ccn2)cc(OC)c1OC` [Example 10, N,N′-bis[[2-(3,4,5-Trimethoxyphenyl)pyridin-4-yl]methyl]homopiperazine], the inhibition at 1 µM is 63% under setting [1] and 71% under setting [2].
With `COc1cc(-c2cc(CN3CCN(Cc4ccnc(-c5cc(OC)c(OC)c(OC)c5)c4)CC3)ccn2)cc(OC)c1OC` [Example 9, N,N′-bis[[2-(3,4,5-Trimethoxyphenyl)pyridin-4-yl]methyl]piperazine], the inhibition at 1 µM runs as follows: under setting [1], 53%; under setting [2], 64%.
In the case of `COc1cc(-c2cccc(CN3CCCN(Cc4cccc(-c5cc(OC)c(OC)c(OC)c5)c4)CC3)c2)cc(OC)c1OC` [Example 4, N,N′-bis[3-(3,4,5-Trimethoxyphenyl)benzyl]-homopiperazine], the inhibition at 1 µM reads like this: under setting [1], 42%; under setting [2], 43%.
For `COc1cc(C#Cc2cc(CN3CCN(Cc4ccnc(C#Cc5cc(OC)c(OC)c(OC)c5)c4)CC3)ccn2)cc(OC)c1OC` [Example 22, N,N′-bis[[2-(3,4,5-Trimethoxyphenylethynyl)-pyridin-4-yl]methyl]piperazine] the same measures were 34% and 50%.
For `COc1cc(C(=O)OCCCN2CCCN(CCCOC(=O)c3cc(OC)c(OC)c(OC)c3)CC2)cc(OC)c1OC` [Dilazep, dilazep, reference compound] the same measures were 0% and 12%.

These data come from patent US6509329B1, “Cyclic diamine compound with 6-membered ring groups” (Kowa Co., Ltd., priority 2001, dated 2003).
